According to article PMC8637440, “Structural Modifications Yield Novel Insights Into the Intriguing Pharmacodynamic Potential of Anti-inflammatory Nitro-Fatty Acids” (Frontiers in Pharmacology, 2021):

These compounds were tested against T1, r5LO-wt (Homo sapiens, UniProt P09917) (assay: Recombinant 5-LO activity assay (5-HETE)). Conditions: 3 µg r5LO-wt, 15 min on ice, 1 mM CaCl2 + 20 µM AA; n.i. = no inhibition observed.
T1 sequence (P09917 1-674): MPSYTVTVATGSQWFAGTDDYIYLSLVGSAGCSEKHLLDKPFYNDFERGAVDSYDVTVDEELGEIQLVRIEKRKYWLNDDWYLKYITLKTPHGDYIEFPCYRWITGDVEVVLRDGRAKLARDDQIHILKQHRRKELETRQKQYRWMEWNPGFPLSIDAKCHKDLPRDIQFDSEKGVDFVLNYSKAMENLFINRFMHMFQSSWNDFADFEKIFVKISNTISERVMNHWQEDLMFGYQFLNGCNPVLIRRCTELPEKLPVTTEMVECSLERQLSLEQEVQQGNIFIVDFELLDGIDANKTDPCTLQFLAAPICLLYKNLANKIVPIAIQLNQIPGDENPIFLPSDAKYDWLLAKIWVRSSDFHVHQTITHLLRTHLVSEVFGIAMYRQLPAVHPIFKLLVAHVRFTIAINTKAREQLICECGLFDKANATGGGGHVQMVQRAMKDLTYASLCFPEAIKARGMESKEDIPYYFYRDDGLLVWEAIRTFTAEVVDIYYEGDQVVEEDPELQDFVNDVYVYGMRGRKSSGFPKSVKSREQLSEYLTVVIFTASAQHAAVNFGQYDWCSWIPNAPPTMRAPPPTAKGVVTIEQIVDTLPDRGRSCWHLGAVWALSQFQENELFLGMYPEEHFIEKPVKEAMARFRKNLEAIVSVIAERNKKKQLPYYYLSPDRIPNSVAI
Format: biochemical
Experimental: 5-LO activity in intact cells was assayed by measuring LTB4 (leukotriene B4) and 5-HETE (5-hydroxyeicosatetraenoic acid) levels in the PMNL supernatants. Since PMNL preparations (purity >95%) contain eosinophils expressing 15-LO-1 as well as platelets, we also analyzed the effects of NFA on the concomitant formation of […] and 12-(S)-HETE. […] Recombinant 5-LO enzyme activity was assessed by the determination of 5-HETE levels representing a direct product assay. In the cell-based LO activity assays, 5 × 10^6 cells per ml PBS/glucose were transferred to 5 ml glass tubes containing 1 mM CaCl2 and stored on ice. […] Subsequently, the cells were stimulated with calcium ionophore A23187 (2.5 µM) and arachidonic acid (AA, 20 µM) for an additional 10 min at 37°C. Recombinant 5-LO activity assays were carried out using 3 µg r5LO-wt enzyme. The enzyme was diluted in PBS/EDTA/ATP, transferred into 5-ml glass tubes, and stored on ice. […] The samples were then pre-heated at 37°C in a water bath and subsequently stimulated with 1 mM CaCl2 and 20 µM AA for 10 min at 37°C. The reaction was stopped by placing the glass tubes on ice. The supernatants were transferred to 1.5 ml reaction tubes and stored at −80°C before LC-MS (liquid chromatography and mass spectrometry) analysis of LTB4 and HETEs as described in 2.6 at the Institute of Pharmacology, Goethe University, University Hospital, Germany.
The lipid mediators LTB4, hydroxyeicosatetraenoic acids, 5(S)-HETE, 12(S)-HETE, 15(S)-HETE and 20-HETE were analyzed using liquid chromatography tandem-mass spectroscopy (LC-MS/MS). The LC-MS/MS system consisted of a 5500 QTrap mass spectrometer (Sciex, Darmstadt, Germany), operating in negative ESI mode, an Agilent 1200 HPLC system (Agilent, Waldbronn, Germany) and an HTC Pal autosampler (Chromtech, Idstein, Germany).
Suppl. Figure 3: Inhibition of 5-LO derived 5-HETE production by NFA with (A) different carbon chain lengths and (B) different Michael acceptor positions using the r5LO-wt assay. r5LO-wt (3 µg) in PBS/EDTA/ATP buffer was preincubated with the compounds or the vehicle control DMSO (0.1%) for 15 min at 4°C, preheated at 37°C for 30 sec, and subsequently stimulated with 1 mM CaCl 2 and 20 µM AA for another 10 min at 37°C.
5-HETE activity was analyzed by LC-MS. Data are presented as the percent of the control mean ± SD, n = 3–6. AA , arachidonic acid; ATP, adenosine triphosphate; DMSO, dimethyl sulfoxide; EDTA, ethylenediaminetetraacetate; HETE, hydroxyeicosatetraenoic acid; NFA, nitro-fatty acids; PBS, phosphate-buffered saline . […]

First: CCC=C(CCCCCCCC(=O)O)[N+](=O)[O-] [12.9.9, 9-nitro-dodec-9-enoic acid]
Second: CCCCC=C(CCCCCCCC(=O)O)[N+](=O)[O-] [14.9.9, 9-nitro-tetradec-9-enoic acid]
The IC50 of the first is 4.2-fold higher: 75500 ± 8100 nM for the first, 17900 ± 1600 nM for the second.

`CCCCCCC=C(CCCCCCCC(=O)O)[N+](=O)[O-]` [16.9.9, 9-nitro-hexadec-9-enoic acid] and `CCCCCCCCCCCC=C(CCCCC(=O)O)[N+](=O)[O-]` [18.6.6, 6-nitro-octadec-6-enoic acid] are within error of each other in IC50: 3300 ± 1200 nM for the first, 1000 ± 1200 nM for the second.

`CCCCCCCCCCCCCC=C(CCC(=O)O)[N+](=O)[O-]` [18.4.4, 4-nitro-octadec-4-enoic acid] and `CCCCCCCCCCCCC=C(CCCC(=O)O)[N+](=O)[O-]` [18.5.5, 5-nitro-octadec-5-enoic acid] are the same in IC50: 400 ± 1200 nM for the first, 400 ± 1100 nM for the second.

`CCCCCCCCCCCC(=CCCCCC(=O)O)[N+](=O)[O-]` [18.6.7, 7-nitro-octadec-6-enoic acid] and `CCCCCCCCCCC=C(CCCCCC(=O)O)[N+](=O)[O-]` [18.7.7, 7-nitro-octadec-7-enoic acid] are within error of each other in IC50: 1100 ± 1200 nM for the first, 600 ± 1300 nM for the second.

`CCCCCCCCCC=C(CCCCCCC(=O)O)[N+](=O)[O-]` [18.8.8, 8-nitro-octadec-8-enoic acid] and `CCCCCCCCCC(=CCCCCCCC(=O)O)[N+](=O)[O-]` [18.8.9, 9-nitro-octadec-8-enoic acid] are within error of each other in IC50: 2200 ± 1200 nM for the first, 1900 ± 1200 nM for the second.

`CCCCCCCCC=C(CCCCCCCC(=O)O)[N+](=O)[O-]` [18.9.9, 9-nitro-octadec-9-enoic acid] and `CCCCCCCCC(=CCCCCCCCC(=O)O)[N+](=O)[O-]` [18.9.10, 10-nitro-octadec-9-enoic acid] are within error of each other in IC50: 1100 ± 1200 nM for the first, 1600 ± 1300 nM for the second.

`CCCCCCCC=C(CCCCCCCCC(=O)O)[N+](=O)[O-]` [18.10.10, 10-nitro-octadec-10-enoic acid] and `CCCCCCC=C(CCCCCCCCCC(=O)O)[N+](=O)[O-]` [18.11.11, 11-nitro-octadec-11-enoic acid] are within error of each other in IC50: 1600 ± 1300 nM for the first, 800 ± 1200 nM for the second.

In the case of `CCCCCCCCCCC=C(CCCCCCCC(=O)O)[N+](=O)[O-]` [20.9.9, 9-nitro-eicos-9-enoic acid], the IC50 is reported as 900 ± 1300 nM.

For `CCCCCCCC/C=C\CCCCCCCC(=O)O` [OA, oleic acid, reference compound], the “r5LO-wt 5-HETE IC50” value was “n.i”.

Same assay, conditions: at concentrations of >10 µM

`CCCCCCCC/C=C\CCCCCCCC(=O)O` [OA, oleic acid, reference compound] was tested, and the “effect on product formation by recombinant 5-LO” value was “slight inhibitory effect”.
